# Assay results published in patent US20170143771A1, “COMPOSITION CONTAINING PSEUDOMONAS AERUGINOSA CULTURE SOLUTION EXTRACT HAVING ANTIBIOTIC AND ANTISEPTIC ACTIVITIES, AND USE THEREOF” (JOINT CENTER FOR BIOSCIENCES, priority 2014, published 2017).
# Legend:
# S. aureus = experiment: Antibiotic activity of R1 fractions and rhamnolipids (clear zone on agar plate); type: cell-based, Staphylococcus aureus; settings: concluded from fraction activity and LC/MS peaks 1 and 2
# Description: 1 mg of a mixture state of R1 extracted from a microorganism (P. aeruginosa) culture was dissolved in methanol, and then injected in the sep-Pak vac 1cc tc18 cartridge column. After that, the column was washed with solvent A, and solvent B as a development solvent was injected thereinto. Solvent B with different concentrations was injected into the column, and the fractions passing through the column were collected, and named fraction 1, fraction 2, fraction 3, fraction 4, fraction 5, and fraction 6. The different concentrations of solvent B injected to the column were 50%, 55%, 60%, 65%, 70%, and 75%.
# Each of the obtained fractions was dried, and then dissolved at a concentration of 10 mg/ml in methanol. 20 μl of each of the fractions dissolved in methanol was dropped on an agar plate plated with the S. aureus culture, and cultured at 37° C. for 18 hours. After 18 hours, the clear zone generated on the agar plate was observed.
# Bacillus cereus = experiment: Preservative power test (challenge test), lotion dosage form; type: cell-based; settings: 0.5%
# Description: (§1) In order to investigate the possibility of R1 as a preservative compared with methyl paraben, the preservative power test was conducted by measuring the sterilizing power of a toner dosage form and a lotion dosage form of R1 against gram positive pathogens (Staphylococcus aureus and Bacillus cereus) and gram negative pathogens (Pseudomonas aeruginosa and Escherichia coli). The preservative power test was conducted on the basis of the U.S. Cosmetics, Toiletry, and Fragrance Association (CTFA), and the basis is that a particular material has a possibility as a preservative if the particular material in dosage forms of a toner or lotion kills 99.9% of inoculated bacteria within 7 days.
# (§2) R1 and methyl paraben, which were dissolved in methanol, each were added to the toner dosage form, so that the final concentration of each of R1 and the methyl paraben had 0% and 0.5%, and the S. aureus, B. cereus, P. aeruginosa, and C. albicans cultures each were inoculated in each container. The number of inoculated bacterial cells was 106-107 colony forming unit (CFU)/ml. While the bacteria-inoculated lotions were kept at room temperature, each lotion was diluted immediately, one day, three days, five days, and seven days after the inoculation of bacteria, and 200 μl of the lotions inoculated with S. aureus, B. cereus, and P. aeruginosa each were as plated on LB agar plate, and 200 μl of the lotion inoculated with C. albicans was plated on YPD agar plate. The death or not of bacteria was checked by calculating the number of cells and then comparing the calculated number with the number of initially inoculated bacteria. As control, only methanol was added to the lotion dosage form, and the bacteria culture was inoculated, followed by repeated tests.
# Pseudomonas aeruginosa = experiment: as above; type: cell-based; settings: 0.5%
# Description: as §1, §2
# Candida albicans = experiment: as above; type: cell-based; settings: 0.5%
# Description: as §1, §2
# Staphylococcus aureus = experiment: as above; type: cell-based; settings: 0.5%
# Description: as §1, §2
# [1] = DPPH scavenging activity test (antioxidative effect); type: biochemical; settings: concentration of 0.5% or more; 30 minutes, absorbance 517 nm; compared with ascorbic acid (AA)
# Description: The color change of the DPPH radical is distinctive as it reacts with a reagent having excellent antioxidative ability. R1, ascorbic acid (AA), and methyl paraben (MTP) each were dissolved at different concentrations in methanol. The thus obtained samples (100 μl) each were dissolved at a concentration of 0.006% in methanol, and mixed with 100 μl of the DPPH radical solution to prepare a total volume of 200 μl, followed by reaction in a light-blocked space for 30 minutes. After completion of the reaction, the absorbance of each mixture was measured at 517 nm to determine antioxidative ability of each sample.
compound,measurement,setting,value
CCCCCCCC(CC(=O)O)OC(=O)CC(CCCCCCC)OC1OC(C)C(O)C(O)C1OC1OC(C)C(O)C(O)C1O (stereo not drawn) [Rha-Rha-C10-C10],active ingredient having antibacterial activity,S. aureus,active ingredients having antibacterial activity
CCCCCCCC(CC(=O)O)OC(=O)CC(CCCCCCC)O[C@@H]1O[C@@H](C)[C@H](O)[C@@H](O)[C@H]1O (some centres unmarked) [Rha-C10-C10],active ingredient having antibacterial activity,S. aureus,active ingredients having antibacterial activity
"COC(=O)c1ccc(O)cc1 [MTP, methyl paraben]",survival rate of inoculated bacteria,Bacillus cereus; Day 0,100%
same,survival rate of inoculated bacteria,Bacillus cereus; Day 1,0.12%
same,survival rate of inoculated bacteria,Bacillus cereus; Day 3,0.06%
same,survival rate of inoculated bacteria,Bacillus cereus; Day 5,0.02%
same,survival rate of inoculated bacteria,Bacillus cereus; Day 7,0.01%
same,survival rate of inoculated bacteria,Pseudomonas aeruginosa; Day 0,100%
same,survival rate of inoculated bacteria,Pseudomonas aeruginosa; Day 1,0%
same,survival rate of inoculated bacteria,Pseudomonas aeruginosa; Day 3,0%
same,survival rate of inoculated bacteria,Pseudomonas aeruginosa; Day 5,0%
same,survival rate of inoculated bacteria,Pseudomonas aeruginosa; Day 7,0%
same,survival rate of inoculated bacteria,Candida albicans; Day 0,100%
same,survival rate of inoculated bacteria,Candida albicans; Day 1,0%
same,survival rate of inoculated bacteria,Candida albicans; Day 3,0%
same,survival rate of inoculated bacteria,Candida albicans; Day 5,0%
same,survival rate of inoculated bacteria,Candida albicans; Day 7,0%
same,survival rate of inoculated bacteria,Staphylococcus aureus; Day 0,100%
same,survival rate of inoculated bacteria,Staphylococcus aureus; Day 1,0%
same,survival rate of inoculated bacteria,Staphylococcus aureus; Day 3,0%
same,survival rate of inoculated bacteria,Staphylococcus aureus; Day 5,0%
same,survival rate of inoculated bacteria,Staphylococcus aureus; Day 7,0%
same,antioxidative effect (DPPH scavenging activity),[1],significantly low antioxidative effect
